Reference: patent US7847108B2, “Oxathiin carboxamides” (Bayer CropScience AG, priority 2003, dated 2010)
Where two headings read alike, the source gives them in different places.

Experiment: logP determination by HPLC on reversed-phase column (EEC Directive 79/831 Annex V.A8)
Type: physicochemical
Settings: for chromatographic logP: reversed-phase C18 HPLC column, pH 2.3, C18, 43° C.; for logP: Table 1 logP / m.p., C18, 43° C., acidic range (pH 2.3)
Protocol: The given logP values were determined in accordance with EEC Directive 79/831 Annex V.A8 by HPLC (High Performance Liquid Chromatography) on a reversed-phase column (C 18). Temperature: 43° C. […] Calibration was carried out using unbranched alkan-2-ones (having 3 to 16 carbon atoms) with known logP values (determination of the logP values by the retention times using linear interpolation between two successive alkanones).

[1] = precursors, read-out: HPLC: logP

logP	SMILES	other results
	CO/N=C/c1ccc(-c2ccccc2NC(=O)C2=C(C(F)(F)F)OCCS2)cc1 [Example 1, N-[4′-(methoxyiminomethyl)-biphenyl-2-yl]-6-trifluoromethyl-2,3-dihydro-1,4-oxathiin-5-carboxamide]	chromatographic logP (read-out: logP (pH 2.3)): 3.51
4.24	CC(C)CC(C)c1ccccc1NC(=O)C1=C(C(F)(F)F)OCC(C)S1 (centres unmarked) [Example 3]	
4.53	CC1COC(C(F)(F)F)=C(C(=O)Nc2ccccc2C(C)CC(C)(C)C)S1 (centres unmarked) [Example 4]	
3.98	Cc1cc(-c2ccccc2NC(=O)C2=C(C(F)(F)F)OCC(C)S2)ccc1F (centres unmarked) [Example 5]	
4.26	CC1COC(C(F)(F)F)=C(C(=O)Nc2ccccc2-c2ccc(Cl)c(Cl)c2)S1 (centres unmarked) [Example 6]	
4.30	CC1COC(C(F)(F)F)=C(C(=O)Nc2ccccc2-c2ccc(Cl)c(C(F)(F)F)c2)S1 (centres unmarked) [Example 7]	
4.57	CC(C)ON=Cc1ccc(-c2ccccc2NC(=O)C2=C(C(F)(F)F)OCC(C)S2)cc1 (centres unmarked) [Example 8]	
4.06	CC1COC(C(F)(F)F)=C(C(=O)Nc2ccccc2-c2ccc(C(F)(F)F)cc2)S1 (centres unmarked) [Example 9]	
4.42	CCCON=Cc1ccc(-c2ccccc2NC(=O)C2=C(C(F)(F)F)OCCS2)cc1F [Example 25]	
3.69	O=C(Nc1ccccc1C1CCCCC1)C1=C(C(F)(F)F)OCCS1 [Example 28]	
4.03	O=C(Nc1ccccc1-c1ccc(Cl)c(C(F)(F)F)c1)C1=C(C(F)(F)F)OCCS1 [Example 30]	
4.71	CC(CC1CCCCC1)c1ccccc1NC(=O)C1=C(C(F)(F)F)OCCS1 (centres unmarked) [Example 31]	
3.35	O=C(Nc1ccccc1-c1cc(F)cc(F)c1)C1=C(C(F)(F)F)OCCS1 [Example 32]	
3.85	O=C(Nc1ccccc1-c1ccc(I)cc1)C1=C(C(F)(F)F)OCCS1 [Example 33]	
3.33	C=CCC(C)c1ccccc1NC(=O)C1=C(C(F)(F)F)OCCS1 (centres unmarked) [Example 34]	
3.62	Cc1ccc(-c2ccccc2NC(=O)C2=C(C(F)(F)F)OCCS2)cc1F [Example 36]	
3.76	C#CCON=C(C)c1ccc(-c2ccccc2NC(=O)C2=C(C(F)(F)F)OCCS2)cc1 [Example 40]	
1.96	CON=C(N)c1ccc(-c2ccccc2NC(=O)C2=C(C(F)(F)F)OCCS2)cc1 [Example 41]	
5.48	CCCCCCCCC(C)c1ccccc1NC(=O)C1=C(C(F)(F)F)OCCS1 (centres unmarked) [Example 42]	
3.60	O=C(Nc1ccccc1-c1cc(F)cc(Cl)c1)C1=C(C(F)(F)F)OCCS1 [Example 44]	
3.45	CON=C(C)c1ccc(-c2ccccc2NC(=O)C2=C(C(F)(F)F)OCCS2)cc1Cl [Example 45]	
3.69	CON=C(C)c1ccc(-c2ccccc2NC(=O)C2=C(C(F)(F)F)OCCS2)cc1F [Example 46]	
4.34	CCCCCC(C)c1ccccc1NC(=O)C1=C(C(F)(F)F)OCCS1 (centres unmarked) [Example 48]	
4.31	CC(c1ccccc1NC(=O)C1=C(C(F)(F)F)OCCS1)C1CCCCC1 (centres unmarked) [Example 49]	
3.94	CC(C)CC(C)c1cc(F)ccc1NC(=O)C1=C(C(F)(F)F)OCCS1 (centres unmarked) [Example 50]	

logP	SMILES	other results
3.62	CCC(CC)c1ccccc1NC(=O)C1=C(C(F)(F)F)OCCS1 [Example 51]	
3.67	CCCC(C)c1cc(F)ccc1NC(=O)C1=C(C(F)(F)F)OCCS1 (centres unmarked) [Example 52]	
3.92	CC(CC1CC1(Cl)Cl)c1ccccc1NC(=O)C1=C(C(F)(F)F)OCCS1 (centres unmarked) [Example 55]	
4.48	CCC(C)(C)CC(C)c1ccccc1NC(=O)C1=C(C(F)(F)F)OCCS1 (centres unmarked) [Example 58]	
5.36	CC1CSC(C(=O)Nc2ccccc2C2CC3CCC2C3)=C(C(F)(F)F)O1 (centres unmarked) [Example 59]	
4.18	CC1CC(C)(C)c2cccc(NC(=O)C3=C(C(F)(F)F)OCCS3)c21 (centres unmarked) [Example 60]	
4.08	CC1CSC(C(=O)Nc2ccccc2-c2ccc(C(F)(F)F)cc2)=C(C(F)(F)F)O1 (centres unmarked) [Example 61]	
3.81	CON=Cc1ccc(-c2ccccc2NC(=O)C2=C(C(F)(F)F)OC(C)CS2)cc1 (centres unmarked) [Example 62]	
4.27	CC(C)CC(C)c1ccccc1NC(=O)C1=C(C(F)(F)F)OC(C)CS1 (centres unmarked) [Example 63]	
4.56	CC(C)ON=Cc1ccc(-c2ccccc2NC(=O)C2=C(C(F)(F)F)OC(C)CS2)cc1 (centres unmarked) [Example 64]	
4.27	CC1CSC(C(=O)Nc2ccccc2-c2ccc(Cl)c(Cl)c2)=C(C(F)(F)F)O1 (centres unmarked) [Example 65]	
4.51	CC1CSC(C(=O)Nc2ccccc2C(C)CC(C)(C)C)=C(C(F)(F)F)O1 (centres unmarked) [Example 66]	
4.32	CC1CSC(C(=O)Nc2ccc(F)cc2-c2ccc(Cl)c(Cl)c2)=C(C(F)(F)F)O1 (centres unmarked) [Example 67]	
4.77	CCCON=Cc1ccc(-c2ccccc2NC(=O)C2=C(C(F)(F)F)OC(C)CS2)cc1F (centres unmarked) [Example 68]	
3.99	Cc1ccc(-c2ccccc2NC(=O)C2=C(C(F)(F)F)OC(C)CS2)cc1F (centres unmarked) [Example 69]	
3.99	Cc1cc(-c2ccccc2NC(=O)C2=C(C(F)(F)F)OC(C)CS2)ccc1F (centres unmarked) [Example 70]	
4.08	CC1CSC(C(=O)Nc2ccccc2-c2ccc(C(F)(F)F)c(F)c2)=C(C(F)(F)F)O1 (centres unmarked) [Example 71]	
3.49	O=C(Nc1ccc(F)cc1-c1cc(F)cc(F)c1)C1=C(C(F)(F)F)OCCS1 [Example 73]	
3.20	O=C(Nc1c(F)cccc1-c1cc(F)cc(F)c1)C1=C(C(F)(F)F)OCCS1 [Example 74]	
3.70	O=C(Nc1cc(F)ccc1-c1cc(F)cc(F)c1)C1=C(C(F)(F)F)OCCS1 [Example 75]	
4.25	CCCCCCc1ccccc1NC(=O)C1=C(C(F)(F)F)OCCS1 [Example 76]	
4.07	CCCC(CC)c1ccccc1NC(=O)C1=C(C(F)(F)F)OCCS1 (centres unmarked) [Example 77]	
2.87	N#Cc1ccc(-c2ccccc2NC(=O)C2=C(C(F)(F)F)OCCS2)cc1 [Example 78]	
3.53	O=C(Nc1ccccc1-c1ccc(Cl)c(Cl)c1)C1=C(C2CC2)OCCS1 [Example 80]	
4.29	CC(CC(C)(C)C)c1ccccc1NC(=O)C1=C(C(F)F)OCCS1 (centres unmarked) [Example 81]	

logP	SMILES	other results
4.00	CC1CC(C)(C)c2cccc(NC(=O)C3=C(C(F)F)OCCS3)c21 (centres unmarked) [Example 83]	
3.92	O=C(Nc1ccccc1-c1ccc(Cl)c(Cl)c1)C1=C(C(F)F)OCCS1 [Example 84]	
4.52	CCCON=Cc1ccc(-c2ccccc2NC(=O)C2=C(C(F)F)OCCS2)cc1F [Example 85]	
4.65	CCCC(CC(C)C)c1ccccc1NC(=O)C1=C(C(F)(F)F)OCCS1 (centres unmarked) [Example 87]	
4.30	CCC(CC(C)C)c1ccccc1NC(=O)C1=C(C(F)(F)F)OCCS1 (centres unmarked) [Example 88]	
4.32	CC(=CC(C)C)c1ccccc1NC(=O)C1=C(C(F)(F)F)OCCS1 [Example 89]	
3.53	CC(C)CC(C)c1ccccc1NC(=O)C1=C(C(F)(F)F)OCCS1(=O)=O (centres unmarked) [Example 90]	
3.35	O=C(Nc1ccccc1-c1ccc(Br)cc1)C1=C(C(F)(F)F)OCCS1(=O)=O [Example 91]	
3.66	Cc1cc(Cl)ccc1-c1ccccc1NC(=O)C1=C(C(F)(F)F)OCCS1(=O)=O [Example 92]	
3.57	O=C(Nc1ccccc1-c1ccc(Cl)c(Cl)c1)C1=C(C(F)(F)F)OCCS1(=O)=O [Example 93]	
3.88	CCC(C)C(C)c1ccccc1NC(=O)C1=C(C(F)(F)F)OCCS1 (centres unmarked) [Example 94]	
3.28	O=C(Nc1ccccc1-c1ccc(Cl)c(F)c1)C1=C(C(F)(F)F)OCCS1(=O)=O [Example 95]	
3.72	CC(CC1CC1)c1ccccc1NC(=O)C1=C(C(F)(F)F)OCCS1 (centres unmarked) [Example 96]	
4.42	CC(C)(C)C#Cc1ccccc1NC(=O)C1=C(C(F)(F)F)OCCS1 [Example 97]	
4.06	Cc1cc(-c2ccccc2NC(=O)C2=C(C(F)(F)F)OCCS2)ccc1Br [Example 98]	
4.56	CC(=O)N(C(=O)C1=C(C(F)(F)F)OCCS1)c1ccccc1C(C)CC(C)C (centres unmarked) [Example 99]	
2.53	CON=C(c1ccc(-c2ccccc2NC(=O)C2=C(C(F)(F)F)OCCS2)cc1)C(F)(F)F [Example 100]	
3.66	CC1(c2ccccc2NC(=O)C2=C(C(F)(F)F)OCCS2)CC1(Cl)Cl (centres unmarked) [Example 101]	
3.72	CC(C)CCc1ccccc1NC(=O)C1=C(C(F)(F)F)OCCS1 [Example 102]	
3.98	CC(C)(C)CCc1ccccc1NC(=O)C1=C(C(F)(F)F)OCCS1 [Example 103]	
	CC1COC(C(F)(F)F)=C(C(=O)O)S1 (centres unmarked) [Example (II-2)]	chromatographic logP [1]: 1.69
	CC1CSC(C(=O)O)=C(C(F)(F)F)O1 (centres unmarked) [Example (II-3)]	chromatographic logP [1]: 1.72
	CC(C)=CC(C)c1ccccc1N (centres unmarked) [Example (III-2)]	chromatographic logP [1]: 1.19
	CCC(Cl)CC(C)c1ccccc1N (centres unmarked) [Example (III-3), 2-(3-Chloro-1-methylpentyl)phenylamine]	chromatographic logP [1]: 2.3
	CC(CC1CC1(Cl)Cl)c1ccccc1NC(=O)C(C)(C)C (centres unmarked) [III-4a, N-{2-[2-(2,2-dichlorocyclopropyl)-1-methylethyl]-phenyl}-2,2-dimethylpropionamide]	chromatographic logP (read-out: logP (pH 2.3)): 3.77

SMILES	logP	other results
CCCC(C)c1ccccc1NC(=O)C1=C(C(F)(F)F)OCCS1 (centres unmarked) [Example 39]	3.63	
CCC(C)CC(C)c1ccccc1NC(=O)C1=C(C(F)(F)F)OCCS1 (centres unmarked) [Example 54]	4.25	
